The results in this text go back to patent US8962596B2 (Array BioPharma Inc., priority 2010, dated 2015).

Common to all, as to assay type: biochemical
For one assay, the target named is T1, JAK2 (Homo sapiens, UniProt O60674).
T1 construct: purchased Invitrogen Corporation, Carlsbad, Calif; PV4288
Put plainly: JAK2 Inhibition Assay (Omnia kinase fluorescence peptide substrate assay). To be noted: averaged IC50 ranges; assay of Example C; 25 μM (Km app) or 1 mM ATP, 5 nM JAK2. The method in brief: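 A 10-point, 3-fold compound series (top 10 μM, 2% DMSO) was tested against 5 nM JAK2 with 10 μM Omnia Y7 substrate and either 1 mM or 25 μM (Km app) ATP. Buffer: pH 7.4 HEPES, MgCl2, Triton X-100, DTT. Sox fluorescence was monitored kinetically for 45 min; IC50 is the concentration giving 50 POC on a 4-parameter fit.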

For another assay, the target named is T2, JAK3 (Homo sapiens, UniProt P52333).
T2 construct: purchased Invitrogen Corporation, Carlsbad, Calif; PV4080
T2 sequence (P52333 1-1124): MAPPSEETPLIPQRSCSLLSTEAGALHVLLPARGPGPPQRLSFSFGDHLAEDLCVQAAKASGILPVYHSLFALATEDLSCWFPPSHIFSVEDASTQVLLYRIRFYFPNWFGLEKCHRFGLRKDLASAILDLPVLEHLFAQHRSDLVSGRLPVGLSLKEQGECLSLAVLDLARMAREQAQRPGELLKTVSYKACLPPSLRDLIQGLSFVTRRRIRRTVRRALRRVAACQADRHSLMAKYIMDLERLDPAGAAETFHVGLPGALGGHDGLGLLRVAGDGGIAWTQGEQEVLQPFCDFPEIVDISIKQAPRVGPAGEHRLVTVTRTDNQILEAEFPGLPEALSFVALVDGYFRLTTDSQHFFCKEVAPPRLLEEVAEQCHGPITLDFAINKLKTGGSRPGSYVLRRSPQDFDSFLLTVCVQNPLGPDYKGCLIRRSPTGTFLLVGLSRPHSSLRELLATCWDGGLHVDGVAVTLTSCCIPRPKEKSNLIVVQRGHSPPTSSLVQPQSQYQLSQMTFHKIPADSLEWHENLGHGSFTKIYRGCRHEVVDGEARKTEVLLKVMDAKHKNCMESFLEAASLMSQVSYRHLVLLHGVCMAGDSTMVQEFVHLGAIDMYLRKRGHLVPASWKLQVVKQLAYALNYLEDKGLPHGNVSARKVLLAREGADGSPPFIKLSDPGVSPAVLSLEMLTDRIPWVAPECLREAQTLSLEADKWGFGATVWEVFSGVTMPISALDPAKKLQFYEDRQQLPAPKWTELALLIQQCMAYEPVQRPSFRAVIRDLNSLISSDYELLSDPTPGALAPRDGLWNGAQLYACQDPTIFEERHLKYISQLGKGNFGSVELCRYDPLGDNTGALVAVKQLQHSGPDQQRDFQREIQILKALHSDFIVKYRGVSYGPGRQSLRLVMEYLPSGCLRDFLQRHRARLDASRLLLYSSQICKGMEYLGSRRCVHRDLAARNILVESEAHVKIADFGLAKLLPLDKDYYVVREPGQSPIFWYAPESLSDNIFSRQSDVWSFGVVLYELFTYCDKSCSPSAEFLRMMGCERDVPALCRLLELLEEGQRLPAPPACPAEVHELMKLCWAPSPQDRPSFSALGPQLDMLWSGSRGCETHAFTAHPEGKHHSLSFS
Briefly: JAK3 Inhibition Assay (Omnia kinase fluorescence peptide substrate assay). To be noted: averaged IC50 ranges; assay of Example D; 10 μM (Km app) or 1 mM ATP, 2.5 nM JAK3. The method, boiled down:
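Kinase at 2.5 nM with 10 µM Omnia Y7 peptide and 10 µM (Km app) or 1 mM ATP in 25 mM HEPES pH 7.4, 10 mM MgCl2, 1 mM DTT, 0.01% Triton X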

The target of the next assay is T3, Human Tyk2 kinase domain (Homo sapiens, UniProt P29597).
T3 construct: comprising amino acids 886 to 1187 with 10 additional histidine residues; 10xHis (histidine tag) (C, cleaved yes); made in house
T3 sequence (P29597 886-1187): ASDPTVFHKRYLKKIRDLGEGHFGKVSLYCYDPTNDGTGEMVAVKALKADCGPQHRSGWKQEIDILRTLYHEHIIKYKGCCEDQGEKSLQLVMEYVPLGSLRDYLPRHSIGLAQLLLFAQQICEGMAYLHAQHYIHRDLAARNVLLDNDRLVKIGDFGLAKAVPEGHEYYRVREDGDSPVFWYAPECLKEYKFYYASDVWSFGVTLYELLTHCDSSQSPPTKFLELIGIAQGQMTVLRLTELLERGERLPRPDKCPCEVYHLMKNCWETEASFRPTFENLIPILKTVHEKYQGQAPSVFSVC
Briefly: Tyk2 Inhibition Assay (Omnia kinase fluorescence peptide substrate assay). The note with it: averaged IC50 ranges; assay of Example A; 10 μM (Km app) or 1 mM ATP, 2 nM Tyk2. The method, boiled down: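 2 nM His-tag-cleaved kinase domain (aa 886–1187) with 8 μM Omnia Y12 peptide, 10 μM (Km app) or 1 mM ATP, pH 7.4 HEPES/10 mM MgCl2, 2% DMSO. Fluorescence (ex 360/em 485 nm) every 50 s for 45 min; IC50 from 4-parameter fit of POC, top dose 10 μM.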

A further assay has as its target T4, JAK1 (Homo sapiens, UniProt P23458).
T4 construct: purchased Invitrogen Corporation, Carlsbad, Calif; PV4775
Put plainly: JAK1 Inhibition Assay (Omnia kinase fluorescence peptide substrate assay). To be noted: averaged IC50 ranges; assay of Example B; 40 μM (Km app) or 1 mM ATP, 15 nM JAK1.

T1 sequence (O60674 whole entry): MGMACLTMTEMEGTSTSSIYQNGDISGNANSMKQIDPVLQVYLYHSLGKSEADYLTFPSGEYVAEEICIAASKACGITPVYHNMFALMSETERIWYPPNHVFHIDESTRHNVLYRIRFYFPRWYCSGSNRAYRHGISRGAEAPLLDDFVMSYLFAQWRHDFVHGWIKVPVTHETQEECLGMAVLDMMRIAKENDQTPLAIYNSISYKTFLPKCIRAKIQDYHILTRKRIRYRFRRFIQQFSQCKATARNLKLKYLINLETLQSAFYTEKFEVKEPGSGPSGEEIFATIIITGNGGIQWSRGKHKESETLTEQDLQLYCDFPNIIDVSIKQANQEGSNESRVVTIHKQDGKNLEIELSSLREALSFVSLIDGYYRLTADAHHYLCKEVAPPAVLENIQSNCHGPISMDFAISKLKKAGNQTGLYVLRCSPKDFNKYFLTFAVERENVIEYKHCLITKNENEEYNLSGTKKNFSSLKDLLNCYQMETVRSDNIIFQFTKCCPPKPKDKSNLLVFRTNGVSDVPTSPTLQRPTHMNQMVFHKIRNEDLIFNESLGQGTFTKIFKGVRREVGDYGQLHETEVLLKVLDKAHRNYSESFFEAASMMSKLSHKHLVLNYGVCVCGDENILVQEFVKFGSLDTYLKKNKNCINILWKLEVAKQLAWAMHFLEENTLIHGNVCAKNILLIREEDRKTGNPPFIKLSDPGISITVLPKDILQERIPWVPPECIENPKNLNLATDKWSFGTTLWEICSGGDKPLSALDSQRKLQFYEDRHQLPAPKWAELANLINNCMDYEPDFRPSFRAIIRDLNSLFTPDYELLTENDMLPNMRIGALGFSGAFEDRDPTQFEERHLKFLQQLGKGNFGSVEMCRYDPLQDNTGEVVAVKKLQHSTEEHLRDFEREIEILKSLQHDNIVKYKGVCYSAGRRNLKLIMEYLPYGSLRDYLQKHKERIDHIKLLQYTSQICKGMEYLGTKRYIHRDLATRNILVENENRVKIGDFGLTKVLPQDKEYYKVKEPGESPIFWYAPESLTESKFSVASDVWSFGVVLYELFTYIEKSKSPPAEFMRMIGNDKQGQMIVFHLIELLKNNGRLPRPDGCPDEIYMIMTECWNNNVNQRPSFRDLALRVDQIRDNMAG
T4 sequence (P23458 whole entry): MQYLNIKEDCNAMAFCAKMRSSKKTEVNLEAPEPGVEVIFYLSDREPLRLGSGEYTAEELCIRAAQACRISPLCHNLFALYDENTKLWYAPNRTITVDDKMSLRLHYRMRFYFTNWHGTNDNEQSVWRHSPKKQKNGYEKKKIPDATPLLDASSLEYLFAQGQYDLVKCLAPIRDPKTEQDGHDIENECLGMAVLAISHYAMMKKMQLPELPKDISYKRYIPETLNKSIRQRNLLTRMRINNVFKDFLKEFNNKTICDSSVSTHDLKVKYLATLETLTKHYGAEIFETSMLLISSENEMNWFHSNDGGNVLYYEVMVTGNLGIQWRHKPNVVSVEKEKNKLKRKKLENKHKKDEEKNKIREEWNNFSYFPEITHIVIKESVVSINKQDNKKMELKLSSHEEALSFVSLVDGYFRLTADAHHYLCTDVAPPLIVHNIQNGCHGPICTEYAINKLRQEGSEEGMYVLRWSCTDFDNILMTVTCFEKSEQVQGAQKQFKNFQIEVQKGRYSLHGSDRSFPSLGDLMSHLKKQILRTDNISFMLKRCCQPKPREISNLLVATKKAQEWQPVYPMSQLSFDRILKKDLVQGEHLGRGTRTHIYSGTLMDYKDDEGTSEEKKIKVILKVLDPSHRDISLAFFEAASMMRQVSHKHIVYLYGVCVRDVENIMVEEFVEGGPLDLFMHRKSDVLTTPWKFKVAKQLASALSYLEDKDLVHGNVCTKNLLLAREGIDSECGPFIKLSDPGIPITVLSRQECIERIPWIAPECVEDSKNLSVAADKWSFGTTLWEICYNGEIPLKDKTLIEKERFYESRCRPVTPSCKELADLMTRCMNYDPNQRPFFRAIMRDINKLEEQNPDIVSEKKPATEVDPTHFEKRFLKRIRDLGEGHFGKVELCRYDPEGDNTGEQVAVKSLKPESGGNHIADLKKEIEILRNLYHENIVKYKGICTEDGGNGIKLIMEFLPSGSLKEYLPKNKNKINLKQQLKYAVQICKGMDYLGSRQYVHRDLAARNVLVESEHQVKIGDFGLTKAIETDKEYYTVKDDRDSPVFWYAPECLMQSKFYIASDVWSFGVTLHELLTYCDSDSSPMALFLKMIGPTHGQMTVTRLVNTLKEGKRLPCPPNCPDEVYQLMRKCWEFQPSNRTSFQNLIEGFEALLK

As a reminder, the IC50 is the concentration that gives 50% inhibition. As for `COc1ccc(-c2cc3nccn3c(-c3cnn(C4(CC#N)CN(S(=O)(=O)C(F)(F)F)C4)c3)n2)cc1` [Example 158, 2-(3-(4-(7-(4-methoxyphenyl)imidazo[1,2-c]pyrimidin-5-yl)-1H-pyrazol-1-yl)-1-(trifluoromethylsulfonyl)azetidin-3-yl)acetonitrile], the IC50 against JAK2 was 0.01 to 0.1 µM; at JAK3, 0.1 to 1 µM; against Human Tyk2 kinase domain it was less than 0.01 µM; against JAK1, less than 0.01 µM.

As to `Cn1cc(-c2cc3nccn3c(-c3cnn(C4(CC#N)CN(C5COC5)C4)c3)n2)cn1` [Example 67, 2-(3-(4-(7-(1-Methyl-1H-pyrazol-4-yl)imidazo[1,2-c]pyrimidin-5-yl)-1H-pyrazol-1-yl)-1-(oxetan-3-yl)azetidin-3-yl)acetonitrile], the IC50 is 0.1 to 1 µM on JAK2, more than 1 µM against JAK3, 0.01 to 0.1 µM against Human Tyk2 kinase domain and more than 1 µM against JAK1.

For `Cn1cc(-c2cc3nccn3c(-c3cnn(CCC#N)c3)n2)cn1` [Example 19, 3-(4-(7-(1-methyl-1H-pyrazol-4-yl)imidazo[1,2-c]pyrimidin-5-yl)-1H-pyrazol-1-yl)propanenitrile], the IC50 at JAK2 is 0.1 to 1 µM; against JAK3, more than 1 µM; against Human Tyk2 kinase domain, 0.01 to 0.1 µM; on JAK1, 0.1 to 1 µM.

In the case of `N#CCC1(n2cc(-c3nc(-c4cnn(C5COC5)c4)cc4nccn34)cn2)CN(CC(F)(F)C(F)(F)F)C1` [Example 157, 2-(3-(4-(7-(1-(oxetan-3-yl)-1H-pyrazol-4-yl)imidazo[1,2-c]pyrimidin-5-yl)-1H-pyrazol-1-yl)-1-(2,2,3,3,3-pentafluoropropyl)azetidin-3-yl)acetonitrile], the concentration for half-maximal inhibition (IC50) on JAK2 was 0.01 to 0.1 µM; at JAK3 it was more than 1 µM; on Human Tyk2 kinase domain, 0.01 to 0.1 µM; against JAK1, 0.1 to 1 µM.

In the case of `CN1CCc2ccc(-c3cc4nccn4c(-c4cnn(C(CC#N)C5CC5)c4)n3)cc2C1` (stereo not drawn) [Example 55, 3-Cyclopropyl-3-(4-(7-(2-methyl-1,2,3,4-tetrahydroisoquinolin-7-yl)imidazo[1,2-c]pyrimidin-5-yl)-1H-pyrazol-1-yl)propanenitrile], the IC50 was 0.01 to 0.1 µM on JAK2, 0.1 to 1 µM on JAK3, 0.01 to 0.1 µM on Human Tyk2 kinase domain and 0.01 to 0.1 µM at JAK1.

On to `Cn1cc(-c2ccc(-c3cc4nccn4c(-c4cnn(C(CC#N)C5CC5)c4)n3)cc2)cn1` (stereo not drawn) [Example 60, 3-Cyclopropyl-3 (4 (7 (4 (1 methyl-1H-pyrazol-4-yl)phenyl)imidazo[1,2-c]pyrimidin-5-yl)-1H-pyrazol-1-yl)propanenitrile], for which the half-maximal inhibitory concentration (IC50) is 0.01 to 0.1 µM at JAK2, 0.1 to 1 µM on JAK3, less than 0.01 µM against Human Tyk2 kinase domain and 0.01 to 0.1 µM against JAK1.

Take `CCCN1CC(CC#N)(n2cc(-c3nc(-c4cnn(C)c4)cc4nccn34)cn2)C1` [Example 81, 2-(3-(4-(7-(1-methyl-1H-pyrazol-4-yl)imidazo[1,2-c]pyrimidin-5-yl)-1H-pyrazol-1-yl)-1-propylazetidin-3-yl)acetonitrile]: the IC50 against JAK2 was 0.1 to 1 µM; at JAK3, more than 1 µM; on Human Tyk2 kinase domain it was 0.01 to 0.1 µM; on JAK1, 0.1 to 1 µM.

In the case of `Cc1ncc(-c2cc3nccn3c(-c3cnn(C(CC#N)C4CC4)c3)n2)s1` (stereo not drawn) [Example 48], the concentration for half-maximal inhibition (IC50) at JAK2 lay within 0.01 to 0.1 µM; against JAK3, 0.1 to 1 µM; on Human Tyk2 kinase domain, 0.01 to 0.1 µM; on JAK1, 0.1 to 1 µM.

Consider `COc1ccc(-c2cc3nccn3c(-c3cnn(C4(CC#N)CN(S(=O)(=O)C5CC5)C4)c3)n2)cc1` [Example 159, 2-(1-(cyclopropylsulfonyl)-3-(4-(7-(4-methoxyphenyl)imidazo[1,2-c]pyrimidin-5-yl)-1H-pyrazol-1-yl)azetidin-3-yl)acetonitrile], for which the IC50 against JAK2 is 0.01 to 0.1 µM; against JAK3, more than 1 µM; at Human Tyk2 kinase domain, less than 0.01 µM; against JAK1, 0.01 to 0.1 µM.

On to `N#CCC(C1CC1)n1cc(-c2nc(-c3ccc(N4CCOCC4)cc3)cc3nccn23)cn1` (stereo not drawn) [Example 117, 3-cyclopropyl-3-(4-(7-(4-morpholinophenyl)imidazo[1,2-c]pyrimidin-5-yl)-1H-pyrazol-1-yl)propanenitrile], for which the half-maximal inhibitory concentration (IC50) on JAK2 is 0.01 to 0.1 µM; at JAK3, 0.1 to 1 µM; against Human Tyk2 kinase domain, less than 0.01 µM; against JAK1, 0.01 to 0.1 µM.

Consider `CC(C)n1cc(-c2cc3nccn3c(-c3cnn(C4(CC#N)CN(S(=O)(=O)C(F)(F)F)C4)c3)n2)cn1` [Example 101, 2-(3-(4-(7-(1-Isopropyl-1H-pyrazol-4-yl)imidazo[1,2-c]pyrimidin-5-yl)-1H-pyrazol-1-yl)-1-(trifluoromethylsulfonyl)azetidine-3-yl)acetonitrile], for which the half-inhibitory concentration (IC50) against JAK2 is less than 0.01 µM; on JAK3 it was 0.1 to 1 µM; against Human Tyk2 kinase domain, less than 0.01 µM; against JAK1, less than 0.01 µM.

`CC(C)n1cc(-c2cc3nccn3c(-c3cnn(C(CC#N)C4CC4)c3)n2)cn1` (stereo not drawn) [Example 34, 3-Cyclopropyl-3-(4-(7-(1-isopropyl-1H-pyrazol-4-yl)imidazo[1,2-c]pyrimidin-5-yl)-1H-pyrazol-1-yl)propanenitrile]: the IC50 was 0.01 to 0.1 µM against JAK2, 0.1 to 1 µM against JAK3, less than 0.01 µM at Human Tyk2 kinase domain and 0.1 to 1 µM against JAK1.

For the compound `Cn1cc(-c2cc3nccn3c(-c3ccn(C4(CC#N)CN(S(=O)(=O)C5CC5)C4)c3)n2)cn1` [Example 136], the concentration for half-maximal inhibition (IC50) at JAK2 is 0.01 to 0.1 µM; at JAK3, more than 1 µM; on Human Tyk2 kinase domain, less than 0.01 µM; against JAK1, 0.01 to 0.1 µM.

For `CC(C)(C)NC(=O)c1cc2nccn2c(-c2cnn(C(CC#N)C3CC3)c2)n1` (stereo not drawn) [Example 122, N-tert-butyl-5-(1-(2-cyano-1-cyclopropylethyl)-1H-pyrazol-4-yl)imidazo[1,2-c]pyrimidine-7-carboxamide], the IC50 against JAK2 is more than 1 µM; on JAK3, more than 1 µM; against Human Tyk2 kinase domain, 0.1 to 1 µM; against JAK1, more than 1 µM.

Consider `Cn1cc(-c2cc3nccn3c(-c3cnn(C(CC#N)C4CC4)c3)n2)cn1` (single isomer, unassigned; enantiomer 2) [Example 4, Enantiomer 2 of 3-cyclopropyl-3-(4-(7-(1-methyl-1H-pyrazol-4-yl)imidazo[1,2-c]pyrimidin-5-yl)-1H-pyrazol-1-yl)propanenitrile (Peak 2)], for which the IC50 against JAK2 was 0.01 to 0.1 µM; at JAK3, 0.1 to 1 µM; at Human Tyk2 kinase domain, less than 0.01 µM; on JAK1 it was 0.01 to 0.1 µM.
